According to the supplement of paper PMC10307832:

Assays:
Experiment in all cases: relative viability (nuclei count vs DMSO), 5 days (fraction); higher = more cells survive
[1] = compound: C1=CC=C2C(=C1)N=C(S2)C(C#N)C3=NC(=NC=C3)NCCC4=CN=CC=C4 + CC1(C)CCC(c2ccc(Cl)cc2)=C(CN2CCN(c3ccc(C(=O)NS(=O)(=O)c4ccc(N[C@H](CCN5CCOCC5)CSc5ccccc5)c(S(=O)(=O)C(F)(F)F)c4)cc3)CC2)C1 [Navitoclax] (partner 0.5 µM)
Summary of the method: (§1)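 For relative viability, nuclei counts in treated wells were divided by those in vehicle wells. Lung cancer cell lines had been pin-tool dosed in 1536-well plates the day after seeding and cultured for 5 days, then fixed and stained in one step (final 0.05% Triton X-100, 1% formaldehyde, 1 ug/ml Hoechst) and imaged at 4×. Doses were one drug alone or a fixed anchor-drug dose plus five library-drug doses (not always all listed) in √10 steps, and values are duplicate-plate medians.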

[2] = compound: C#Cc1cccc(Nc2ncnc3cc(OC)c(OCCCCCCC(=O)NO)cc23)c1 [CUDC-101] + N=C(N)NC(=N)NCCc1ccccc1 [Phenformin] (partner 250 µM)
Summary of the method: as §1

[3] = compound: C#Cc1cccc(Nc2ncnc3cc(OC)c(OCCCCCCC(=O)NO)cc23)c1 [CUDC-101] + O=C(CCCCCCC(=O)Nc1ccccc1)NO [Vorinostat] (partner 1 µM)
Summary of the method: as §1

[4] = compound: C#Cc1cccc(Nc2ncnc3cc(OC)c(OCCCCCCC(=O)NO)cc23)c1 [CUDC-101] + COc1cccc2cc(-c3nc([C@H]4CC[C@H](C(=O)O)CC4)n4ncnc(N)c34)[nH]c12 [OSI-027] (partner 0.5 µM)
Summary of the method: as §1

Cell Line	relative viability ([1]; first compound 0.005 µM)	relative viability ([1]; first compound 0.01581 µM)	relative viability ([1]; first compound 0.05 µM)	relative viability ([1]; first compound 0.1581 µM)	relative viability ([1]; first compound 0.5 µM)	relative viability ([2]; first compound 0.01 µM)	relative viability ([2]; first compound 0.03162 µM)	relative viability ([2]; first compound 0.1 µM)	relative viability ([2]; first compound 0.3162 µM)	relative viability ([2]; first compound 1 µM)	relative viability ([3]; first compound 0.01 µM)	relative viability ([3]; first compound 0.03162 µM)	relative viability ([3]; first compound 0.1 µM)	relative viability ([3]; first compound 0.3162 µM)	relative viability ([3]; first compound 1 µM)	relative viability ([4]; first compound 0.01 µM)	relative viability ([4]; first compound 0.03162 µM)	relative viability ([4]; first compound 0.3162 µM)	relative viability ([4]; first compound 1 µM)	relative viability ([4]; first compound 0.1 µM)
201T	1.14	1.22	1.14	1.24	1.2	0.438	0.442	0.424	0.411	0.358	1.02	0.954	0.937	0.982	0.842	0.801	0.703	0.752	0.687	–
A549	1.26	1.19	1.11	1.31	1.29	0.172	0.192	0.143	0.158	0.141	–	–	–	–	–	–	–	–	–	–
A-427	0.964	0.95	0.956	0.896	1.05	0.328	0.347	0.464	0.502	0.389	0.862	0.81	0.854	0.817	0.433	0.464	0.486	0.473	0.308	0.351
ABC-1	–	–	–	–	–	0.256	0.256	0.212	0.247	0.186	1.05	0.988	1.17	0.815	0.318	0.601	0.461	0.373	0.142	0.454
BEN	0.0669	0.0686	0.0618	0.134	0.0603	0.29	0.259	0.239	0.256	0.209	0.656	0.557	0.573	0.538	0.386	0.336	0.259	0.281	0.292	0.348
CAL-12T	0.993	1.38	1.11	1.35	0.993	0.67	0.563	0.617	0.616	0.513	0.761	0.803	0.919	0.828	0.487	0.706	0.668	0.71	0.575	0.777
COR-L23	0.929	0.94	1.1	1.04	1.15	0.479	0.456	0.419	0.365	0.25	0.35	0.581	0.394	0.22	0.0997	0.786	0.724	0.695	0.39	0.792
COR-L 105	0.819	0.753	0.599	0.667	0.729	0.627	0.481	0.447	0.528	0.198	0.921	0.663	0.831	0.611	0.371	0.717	0.73	0.61	0.204	0.399
Calu-6	0.785	0.834	0.819	0.961	0.768	–	–	–	–	–	–	–	–	–	–	–	–	–	–	–
